Measurements reported in ChEMBL document CHEMBL4507320, “Data for DCP probe NVS-MALT1” (2021).
The source made the active and inactive calls. No cut-off for these calls is given here.

Legend:
[1] = target: Aurora kinase C (Homo sapiens) (UniProt Q9UQB9); conditions: Compound concentration 1000.0 nM
[2] = target: T1, Mucosa-associated lymphoid tissue lymphoma translocation protein 1 (Homo sapiens, UniProt Q9UDY8); test: Jurkat IL-2 (IL2-RGA PMA + anti-CD28); type: cell-based
T1 sequence (Q9UDY8 whole entry): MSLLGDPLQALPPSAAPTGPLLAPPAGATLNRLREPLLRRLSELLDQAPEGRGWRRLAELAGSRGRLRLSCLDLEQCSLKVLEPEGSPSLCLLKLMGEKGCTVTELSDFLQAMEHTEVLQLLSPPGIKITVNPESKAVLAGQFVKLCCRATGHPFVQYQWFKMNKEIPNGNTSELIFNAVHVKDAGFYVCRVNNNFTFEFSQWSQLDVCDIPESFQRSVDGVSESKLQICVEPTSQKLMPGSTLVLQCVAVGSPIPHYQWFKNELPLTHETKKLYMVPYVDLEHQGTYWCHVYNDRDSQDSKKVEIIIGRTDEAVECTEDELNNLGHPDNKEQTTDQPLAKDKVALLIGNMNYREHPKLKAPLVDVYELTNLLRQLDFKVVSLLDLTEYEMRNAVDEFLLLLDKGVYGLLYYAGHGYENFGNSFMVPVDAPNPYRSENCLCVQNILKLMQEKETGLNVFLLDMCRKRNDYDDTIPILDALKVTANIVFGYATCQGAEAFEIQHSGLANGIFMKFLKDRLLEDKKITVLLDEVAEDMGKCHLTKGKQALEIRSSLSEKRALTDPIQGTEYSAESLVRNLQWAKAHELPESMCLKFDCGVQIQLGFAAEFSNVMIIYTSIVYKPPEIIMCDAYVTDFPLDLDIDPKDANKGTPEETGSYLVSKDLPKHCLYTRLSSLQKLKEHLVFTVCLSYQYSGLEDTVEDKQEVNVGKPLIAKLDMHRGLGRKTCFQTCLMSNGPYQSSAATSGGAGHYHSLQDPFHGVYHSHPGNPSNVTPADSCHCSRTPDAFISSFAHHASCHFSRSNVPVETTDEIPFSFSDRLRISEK

[3] = target: Protein-tyrosine kinase 2-beta (Homo sapiens) (UniProt Q14289); conditions: Compound concentration 1000.0 nM
[4] = target: Tyrosine-protein kinase Srms (Homo sapiens) (UniProt Q9H3Y6); conditions: Compound concentration 1000.0 nM
[5] = target: Tyrosine-protein kinase JAK3 (Homo sapiens) (UniProt P52333); conditions: Compound concentration 1000.0 nM
[6] = target: Tyrosine-protein kinase Fes/Fps (Homo sapiens) (UniProt P07332); conditions: Compound concentration 1000.0 nM
[7] = target: Ephrin type-A receptor 4 (Homo sapiens) (UniProt P54764); conditions: Compound concentration 1000.0 nM
[8] = target: Ribosomal protein S6 kinase alpha-5 (Homo sapiens) (UniProt O75582); conditions: Compound concentration 1000.0 nM
[9] = target: Myosin light chain kinase 2, skeletal/cardiac muscle (Homo sapiens) (UniProt Q9H1R3); conditions: Compound concentration 1000.0 nM
[10] = target: Mitogen-activated protein kinase 10 (Homo sapiens) (UniProt P53779); conditions: Compound concentration 1000.0 nM
[11] = target: Serine/threonine-protein kinase 16 (Homo sapiens) (UniProt O75716); conditions: Compound concentration 1000.0 nM
[12] = target: Ribosomal protein S6 kinase alpha-3 (Homo sapiens) (UniProt P51812); conditions: Compound concentration 1000.0 nM
[13] = test system: Receptor-type tyrosine-protein kinase FLT3 (Homo sapiens), P36888 [UNDEFINED MUTATION]; conditions: Compound concentration 1000.0 nM
[14] = target: Tyrosine-protein kinase ABL1 (Homo sapiens) (UniProt P00519); conditions: Compound concentration 1000.0 nM
[15] = target: Serine/threonine-protein kinase PAK 3 (Homo sapiens) (UniProt O75914); conditions: Compound concentration 1000.0 nM
[16] = test system: Tyrosine-protein kinase ABL1 (Homo sapiens), P00519 [T315I]; conditions: Compound concentration 1000.0 nM
[17] = target: Serine/threonine-protein kinase RIO3 (Homo sapiens) (UniProt O14730); conditions: Compound concentration 1000.0 nM
[18] = test system: Tyrosine-protein kinase ABL1 (Homo sapiens), P00519 [Q252H]; conditions: Compound concentration 1000.0 nM
[19] = target: Cyclin-dependent kinase 7 (Homo sapiens) (UniProt P50613); conditions: Compound concentration 1000.0 nM
[20] = target: Histamine H2 receptor (Homo sapiens) (UniProt P25021); conditions: Compound concentration 10.0 uM
[21] = target: Serine/threonine-protein kinase Nek6 (Homo sapiens) (UniProt Q9HC98); conditions: Compound concentration 1000.0 nM
[22] = target: Serine/threonine-protein kinase PAK 1 (Homo sapiens) (UniProt Q13153); conditions: Compound concentration 1000.0 nM
[23] = target: Insulin receptor (Homo sapiens) (UniProt P06213); conditions: Compound concentration 1000.0 nM
[24] = test system: Phosphatidylinositol 4,5-bisphosphate 3-kinase catalytic subunit alpha isoform (Homo sapiens), P42336 [H1047L]; conditions: Compound concentration 1000.0 nM
[25] = target: Ephrin type-A receptor 5 (Homo sapiens) (UniProt P54756); conditions: Compound concentration 1000.0 nM
[26] = target: Phosphatidylinositol 4,5-bisphosphate 3-kinase catalytic subunit delta isoform (Homo sapiens) (UniProt O00329); conditions: Compound concentration 1000.0 nM
[27] = test system: ALK tyrosine kinase receptor (Homo sapiens), Q9UM73 [C1156Y]; conditions: Compound concentration 1000.0 nM
[28] = target: Tyrosine-protein kinase Lyn (Homo sapiens) (UniProt P07948); conditions: Compound concentration 1000.0 nM
[29] = target: Mitogen-activated protein kinase kinase kinase 14 (Homo sapiens) (UniProt Q99558); conditions: Compound concentration 1000.0 nM
[30] = test system: Epidermal growth factor receptor (Homo sapiens), P00533 [T790M]; conditions: Compound concentration 1000.0 nM
[31] = target: Protein-tyrosine kinase 6 (Homo sapiens) (UniProt Q13882); conditions: Compound concentration 1000.0 nM
[32] = target: Casein kinase II subunit alpha (Homo sapiens) (UniProt P68400); conditions: Compound concentration 1000.0 nM
[33] = target: Serine/threonine-protein kinase ULK1 (Homo sapiens) (UniProt O75385); conditions: Compound concentration 1000.0 nM
[34] = target: Casein kinase I isoform alpha-like (Homo sapiens) (UniProt Q8N752); conditions: Compound concentration 1000.0 nM

Sequence of Serine/threonine-protein kinase ULK1 (Homo sapiens) (O75385 whole entry, canonical isoform): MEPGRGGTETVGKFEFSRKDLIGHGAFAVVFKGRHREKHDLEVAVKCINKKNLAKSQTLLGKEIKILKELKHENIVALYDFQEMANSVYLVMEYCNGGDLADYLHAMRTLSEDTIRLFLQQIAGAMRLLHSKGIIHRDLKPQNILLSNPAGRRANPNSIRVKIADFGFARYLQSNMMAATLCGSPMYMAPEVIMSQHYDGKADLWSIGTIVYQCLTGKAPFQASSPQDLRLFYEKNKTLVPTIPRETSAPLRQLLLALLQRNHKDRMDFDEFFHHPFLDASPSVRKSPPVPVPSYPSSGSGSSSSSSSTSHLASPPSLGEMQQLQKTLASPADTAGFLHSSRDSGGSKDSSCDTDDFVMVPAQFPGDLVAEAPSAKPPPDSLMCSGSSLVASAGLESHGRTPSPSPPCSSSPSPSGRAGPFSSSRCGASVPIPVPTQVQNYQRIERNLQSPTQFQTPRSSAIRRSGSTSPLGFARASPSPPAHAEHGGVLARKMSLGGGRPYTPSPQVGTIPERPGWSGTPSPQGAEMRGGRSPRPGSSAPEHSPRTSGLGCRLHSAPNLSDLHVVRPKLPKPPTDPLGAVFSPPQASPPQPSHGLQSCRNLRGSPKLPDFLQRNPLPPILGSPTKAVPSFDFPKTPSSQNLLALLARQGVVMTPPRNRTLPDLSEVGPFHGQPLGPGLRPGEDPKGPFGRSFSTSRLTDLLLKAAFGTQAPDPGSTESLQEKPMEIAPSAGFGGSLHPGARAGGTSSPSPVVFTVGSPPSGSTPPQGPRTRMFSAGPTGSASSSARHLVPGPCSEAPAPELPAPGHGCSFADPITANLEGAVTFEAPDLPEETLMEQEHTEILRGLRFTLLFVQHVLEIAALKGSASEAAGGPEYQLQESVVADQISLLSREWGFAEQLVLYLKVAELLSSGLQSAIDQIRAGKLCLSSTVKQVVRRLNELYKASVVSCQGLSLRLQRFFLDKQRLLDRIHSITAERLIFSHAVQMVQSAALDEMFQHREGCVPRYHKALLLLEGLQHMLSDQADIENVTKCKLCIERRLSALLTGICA
Sequence of Receptor-type tyrosine-protein kinase FLT3 (Homo sapiens), P36888 [UNDEFINED MUTATION] (P36888 whole entry, looked up, change not shown): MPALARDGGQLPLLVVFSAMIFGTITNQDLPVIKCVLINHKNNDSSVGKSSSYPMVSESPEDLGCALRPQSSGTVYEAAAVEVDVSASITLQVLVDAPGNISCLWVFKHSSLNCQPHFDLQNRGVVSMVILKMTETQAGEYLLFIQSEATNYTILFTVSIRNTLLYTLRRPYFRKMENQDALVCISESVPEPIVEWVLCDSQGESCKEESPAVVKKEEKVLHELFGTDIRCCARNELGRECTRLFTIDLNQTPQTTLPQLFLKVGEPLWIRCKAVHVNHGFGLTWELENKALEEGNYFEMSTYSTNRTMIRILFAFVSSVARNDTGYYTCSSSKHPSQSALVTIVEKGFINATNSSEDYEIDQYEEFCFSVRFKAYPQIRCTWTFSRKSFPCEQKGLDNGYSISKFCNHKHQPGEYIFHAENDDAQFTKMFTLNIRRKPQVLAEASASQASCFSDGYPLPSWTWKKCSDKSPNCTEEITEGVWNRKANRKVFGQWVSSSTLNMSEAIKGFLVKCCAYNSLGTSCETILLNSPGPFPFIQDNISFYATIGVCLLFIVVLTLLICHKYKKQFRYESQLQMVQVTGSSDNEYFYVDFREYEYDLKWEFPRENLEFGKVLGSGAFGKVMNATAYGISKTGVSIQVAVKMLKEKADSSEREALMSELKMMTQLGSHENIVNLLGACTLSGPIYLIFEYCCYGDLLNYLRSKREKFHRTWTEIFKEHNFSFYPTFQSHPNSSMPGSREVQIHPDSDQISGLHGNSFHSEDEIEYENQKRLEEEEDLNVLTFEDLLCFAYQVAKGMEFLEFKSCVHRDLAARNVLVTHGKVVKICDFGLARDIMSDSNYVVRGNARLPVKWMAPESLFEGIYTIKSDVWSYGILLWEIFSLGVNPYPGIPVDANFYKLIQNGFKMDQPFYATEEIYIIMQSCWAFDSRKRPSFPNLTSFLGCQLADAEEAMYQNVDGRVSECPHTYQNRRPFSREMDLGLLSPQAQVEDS
Sequence of Tyrosine-protein kinase JAK3 (Homo sapiens) (P52333 whole entry): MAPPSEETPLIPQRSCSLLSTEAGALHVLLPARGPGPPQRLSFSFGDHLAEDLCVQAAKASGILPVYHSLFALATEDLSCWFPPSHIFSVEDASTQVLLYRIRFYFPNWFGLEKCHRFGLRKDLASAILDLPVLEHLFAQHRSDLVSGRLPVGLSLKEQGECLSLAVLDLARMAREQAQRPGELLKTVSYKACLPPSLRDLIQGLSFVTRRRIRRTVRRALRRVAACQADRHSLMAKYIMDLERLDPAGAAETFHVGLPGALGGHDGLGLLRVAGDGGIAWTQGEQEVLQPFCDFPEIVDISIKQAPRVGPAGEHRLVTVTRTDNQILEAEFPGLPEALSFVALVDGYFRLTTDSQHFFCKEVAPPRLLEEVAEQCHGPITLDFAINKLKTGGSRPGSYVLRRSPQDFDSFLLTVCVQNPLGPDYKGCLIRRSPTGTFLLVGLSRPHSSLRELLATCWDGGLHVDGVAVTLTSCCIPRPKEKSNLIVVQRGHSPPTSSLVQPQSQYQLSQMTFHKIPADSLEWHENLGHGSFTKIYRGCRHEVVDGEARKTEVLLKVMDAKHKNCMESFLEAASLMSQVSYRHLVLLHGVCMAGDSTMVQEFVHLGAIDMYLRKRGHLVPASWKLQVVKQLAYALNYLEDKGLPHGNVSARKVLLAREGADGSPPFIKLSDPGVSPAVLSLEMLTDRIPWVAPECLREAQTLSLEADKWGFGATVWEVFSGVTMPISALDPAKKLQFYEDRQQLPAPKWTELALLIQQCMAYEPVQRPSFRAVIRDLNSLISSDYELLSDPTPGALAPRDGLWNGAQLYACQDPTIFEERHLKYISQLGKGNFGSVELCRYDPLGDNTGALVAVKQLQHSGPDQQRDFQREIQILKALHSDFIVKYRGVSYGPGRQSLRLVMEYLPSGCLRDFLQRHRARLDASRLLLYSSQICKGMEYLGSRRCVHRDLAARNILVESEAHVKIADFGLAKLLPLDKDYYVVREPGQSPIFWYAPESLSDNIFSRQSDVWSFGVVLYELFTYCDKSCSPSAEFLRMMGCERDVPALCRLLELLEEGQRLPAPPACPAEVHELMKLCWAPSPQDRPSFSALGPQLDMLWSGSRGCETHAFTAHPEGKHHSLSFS
Sequence of Mitogen-activated protein kinase kinase kinase 14 (Homo sapiens) (Q99558 whole entry, looked up): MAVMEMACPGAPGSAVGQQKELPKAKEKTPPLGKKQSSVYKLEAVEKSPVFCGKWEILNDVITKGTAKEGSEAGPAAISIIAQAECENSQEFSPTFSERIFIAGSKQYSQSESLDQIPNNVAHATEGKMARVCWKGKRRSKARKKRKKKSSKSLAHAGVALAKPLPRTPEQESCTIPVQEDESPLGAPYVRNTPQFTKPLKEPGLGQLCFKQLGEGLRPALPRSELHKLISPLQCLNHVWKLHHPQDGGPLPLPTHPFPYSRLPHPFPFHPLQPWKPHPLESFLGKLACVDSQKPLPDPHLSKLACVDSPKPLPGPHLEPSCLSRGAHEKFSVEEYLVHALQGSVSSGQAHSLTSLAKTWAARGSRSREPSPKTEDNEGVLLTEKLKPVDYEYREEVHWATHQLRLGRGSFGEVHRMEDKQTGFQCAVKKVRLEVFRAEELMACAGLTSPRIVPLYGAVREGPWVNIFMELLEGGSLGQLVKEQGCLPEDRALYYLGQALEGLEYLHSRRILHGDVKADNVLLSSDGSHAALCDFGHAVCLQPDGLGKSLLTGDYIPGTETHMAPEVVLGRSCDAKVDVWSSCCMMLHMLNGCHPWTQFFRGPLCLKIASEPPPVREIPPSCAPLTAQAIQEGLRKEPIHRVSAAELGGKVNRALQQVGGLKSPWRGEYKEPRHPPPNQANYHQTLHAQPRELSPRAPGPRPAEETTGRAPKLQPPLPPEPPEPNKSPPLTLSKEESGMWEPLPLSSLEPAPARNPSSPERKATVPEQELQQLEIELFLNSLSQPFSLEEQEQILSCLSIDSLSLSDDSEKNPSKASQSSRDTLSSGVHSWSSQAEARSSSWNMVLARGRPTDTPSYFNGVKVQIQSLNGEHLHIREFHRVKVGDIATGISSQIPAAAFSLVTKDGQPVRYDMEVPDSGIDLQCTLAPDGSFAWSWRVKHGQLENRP
Sequence of Serine/threonine-protein kinase RIO3 (Homo sapiens) (O14730 whole entry): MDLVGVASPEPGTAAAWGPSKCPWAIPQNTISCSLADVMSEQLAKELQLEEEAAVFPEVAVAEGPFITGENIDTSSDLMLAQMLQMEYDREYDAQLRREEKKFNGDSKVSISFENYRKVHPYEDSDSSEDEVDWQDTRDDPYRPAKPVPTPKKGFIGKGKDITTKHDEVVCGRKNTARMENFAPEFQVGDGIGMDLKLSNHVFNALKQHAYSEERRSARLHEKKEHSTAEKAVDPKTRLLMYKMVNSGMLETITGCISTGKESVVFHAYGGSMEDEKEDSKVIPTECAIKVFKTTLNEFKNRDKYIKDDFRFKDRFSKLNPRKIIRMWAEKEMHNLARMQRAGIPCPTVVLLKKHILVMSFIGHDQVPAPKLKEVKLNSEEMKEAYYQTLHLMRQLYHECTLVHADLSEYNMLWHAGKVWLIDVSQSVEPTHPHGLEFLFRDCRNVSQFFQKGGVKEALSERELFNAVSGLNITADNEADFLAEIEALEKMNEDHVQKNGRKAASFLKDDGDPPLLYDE
Sequence of Serine/threonine-protein kinase Nek6 (Homo sapiens) (Q9HC98 whole entry): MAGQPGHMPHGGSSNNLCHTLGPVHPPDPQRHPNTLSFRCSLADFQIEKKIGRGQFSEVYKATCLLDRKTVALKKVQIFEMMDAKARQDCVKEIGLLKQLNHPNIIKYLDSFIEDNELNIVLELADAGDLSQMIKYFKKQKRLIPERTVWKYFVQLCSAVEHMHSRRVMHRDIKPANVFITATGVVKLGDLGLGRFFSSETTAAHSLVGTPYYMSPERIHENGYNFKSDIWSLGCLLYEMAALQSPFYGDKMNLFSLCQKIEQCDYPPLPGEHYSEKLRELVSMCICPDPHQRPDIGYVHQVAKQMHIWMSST

| Compound | residual activity [1] [%] | IC50 [2] | residual activity [3] [%] | residual activity [4] [%] | residual activity [5] [%] | residual activity [6] [%] | residual activity [7] [%] | residual activity [8] [%] | residual activity [9] [%] | residual activity [10] [%] | residual activity [11] [%] | residual activity [12] [%] | residual activity [13] [%] | residual activity [14] [%] | residual activity [15] [%] | residual activity [16] [%] | residual activity [17] [%] | residual activity [18] [%] | residual activity [19] [%] | inhibition [20] [%] | other results |
| --- | --- | --- | --- | --- | --- | --- | --- | --- | --- | --- | --- | --- | --- | --- | --- | --- | --- | --- | --- | --- | --- |
| CO[C@@H](C)c1c(Nc2ccc([C@@H](N(C)C(=O)C3CCS(=O)(=O)CC3)C(F)(F)F)cc2)cnc2cc(Cl)nn12 [NVS-MALT1-C] | 85 | 1900 nM (active) | 100 | 100 | 98 | 100 | 100 | 70 | 88 | 78 | 100 | 100 | 66 | 59 | 100 | 100 | 90 | 100 | 100 | 5.46 | residual activity [21]: 100%; residual activity [22]: 83%; residual activity [23]: 95%; residual activity [24]: 98%; residual activity [25]: 100%; residual activity [26]: 87%; residual activity [27]: 79%; residual activity [28]: 97%; residual activity [29]: 90%; residual activity [30]: 100%; residual activity [31]: 100%; residual activity [32]: 100%; residual activity [33]: 100%; residual activity [34]: 84% |
| CO[C@@H](C)c1c(Nc2ccc([C@H](N(C)C(=O)C3CCS(=O)(=O)CC3)C(F)(F)F)cc2)cnc2cc(Cl)nn12 [NVS-MALT1] | 77 | 3.4 nM (active) | 83 | 95 | 99 | 100 | 83 | 88 | 83 | 96 | 75 | 87 | 71 | 59 | 100 | 100 | 82 | 100 | 100 | -9.88 | residual activity [21]: 97%; residual activity [22]: 74%; residual activity [23]: 87%; residual activity [24]: 92%; residual activity [25]: 100%; residual activity [26]: 98%; residual activity [27]: 89%; residual activity [28]: 77%; residual activity [29]: 94%; residual activity [30]: 90%; residual activity [31]: 81%; residual activity [32]: 100%; residual activity [33]: 100%; residual activity [34]: 65% |
